Measurements: PubChem BioAssay (NCI)
“And” between values parts separate entries of the source, which are not always exact repeats. Equal values may be shown once.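 These data come from cells grown in 96-well plates and exposed to compound for 48 hours at five concentrations. GI50: concentration for 50% inhibition of growth. TGI: total growth inhibition.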

Experiments:
Assay in all cases: NCI tumour cell line growth inhibition, 48 h
T-47D breast = test system: T-47D breast
MCF7 breast = test system: MCF7 breast
DU-145 prostate = test system: DU-145 prostate
MDA-MB-435 = test system: MDA-MB-435
MDA-MB-231 breast = test system: MDA-MB-231 breast
KM20L2 colon = test system: KM20L2 colon
DLD-1 colon = test system: DLD-1 colon
M19-MEL melanoma = test system: M19-MEL melanoma
DMS 114 small cell lung = test system: DMS 114 small cell lung
DMS 273 small cell lung = test system: DMS 273 small cell lung

Cc1ccc2ccc3c4ccccc4ccc3c2c1
GI50 (T-47D breast): 23 µM
TGI (T-47D breast): 74.6 µM
GI50 (MCF7 breast): 15.5 µM
TGI (MCF7 breast): 39.3 µM
GI50 (DU-145 prostate): 34.6 µM
TGI (DU-145 prostate): > 100 µM
GI50 (MDA-MB-435): 18.1 µM
TGI (MDA-MB-435): 71 µM
GI50 (MDA-MB-231 breast): 17.4 µM
TGI (MDA-MB-231 breast): 47.9 µM

O=C1c2cccc3c(N4CCOCC4)ccc(c23)C(=O)N1CCN1CCN(CCCCCN2CCN(CCN3C(=O)c4cccc5c(N6CCOCC6)ccc(c45)C3=O)CC2)CC1
GI50 (T-47D breast): > 100 µM
TGI (T-47D breast): > 100 µM
GI50 (MCF7 breast): 77.6 µM
TGI (MCF7 breast): > 100 µM
GI50 (DU-145 prostate): > 100 µM
TGI (DU-145 prostate): > 100 µM
GI50 (MDA-MB-435): > 100 µM
TGI (MDA-MB-435): > 100 µM
GI50 (MDA-MB-231 breast): > 100 µM
TGI (MDA-MB-231 breast): > 100 µM

O=C(CCCCN1CCN(CCCCC(=O)Nc2ccccc2C#C/C=C\C#Cc2ccccc2C(F)(F)F)CC1)Nc1ccccc1C#C/C=C\C#Cc1ccccc1C(F)(F)F
GI50 (T-47D breast): 13.2 µM
TGI (T-47D breast): 29.2 µM
GI50 (MCF7 breast): 9.97 µM
TGI (MCF7 breast): 23 µM
GI50 (DU-145 prostate): 17.4 µM
TGI (DU-145 prostate): > 50 µM
GI50 (MDA-MB-435): 11.7 µM
TGI (MDA-MB-435): 22 µM
GI50 (MDA-MB-231 breast): 6.23 µM
TGI (MDA-MB-231 breast): 16 µM

CCN(CC)CCCC(Nc1c2ccc(Cl)cc2nc2ccc(OC)cc12)c1ccc(Cl)cc1 (stereo unspecified)
GI50 (T-47D breast): 1.85 µM
TGI (T-47D breast): 3.96 µM
GI50 (MCF7 breast): 0.348 µM
TGI (MCF7 breast): 1.43 µM
GI50 (DU-145 prostate): 1.52 µM
TGI (DU-145 prostate): 3.03 µM
GI50 (MDA-MB-435): 0.576 µM
TGI (MDA-MB-435): 1.93 µM
GI50 (MDA-MB-231 breast): 0.67 µM
TGI (MDA-MB-231 breast): 2.24 µM

CO[C@H]1C(=O)[C@]2(C)[C@@H](OC)C[C@H]3OC[C@@]3(OC(C)=O)[C@H]2[C@H](OC(=O)c2ccccc2)[C@]2(O)C[C@H](OC(=O)[C@H](O)[C@@H](NC(=O)OC(C)(C)C)c3ccccc3)C(C)=C1C2(C)C
GI50 (T-47D breast): < 0.01 µM
TGI (T-47D breast): > 100 µM
GI50 (MCF7 breast): < 0.01 µM
TGI (MCF7 breast): 20.5 µM
GI50 (DU-145 prostate): < 0.01 µM
TGI (DU-145 prostate): < 0.01 µM
GI50 (MDA-MB-231 breast): < 0.0183 µM
TGI (MDA-MB-231 breast): > 53.6 µM

COc1cc2c(c3c1c(=O)c1ccccc1n3C)C=C([N+](=O)[O-])C(C)(C)O2
TGI (T-47D breast): > 100 µM
TGI (MCF7 breast): > 100 µM
TGI (DU-145 prostate): > 100 µM
TGI (MDA-MB-435): 0.577 µM
TGI (MDA-MB-231 breast): > 31.6 µM

OCC1OC(OC2(CO)OC(CO)C(O)C2O)C(O)C(O)C1O (stereo unspecified)
GI50 (T-47D breast): > 100 µM
TGI (T-47D breast): > 100 µM
GI50 (DU-145 prostate): > 100 µM
TGI (DU-145 prostate): > 100 µM
GI50 (MDA-MB-435): > 100 µM
TGI (MDA-MB-435): > 100 µM
GI50 (MDA-MB-231 breast): > 100 µM
TGI (MDA-MB-231 breast): > 100 µM

O=C(CI)NC(=O)NC(=O)NCc1ccccc1
GI50 (T-47D breast): 2.48 µM
TGI (T-47D breast): 6.7 µM
GI50 (MCF7 breast): 2.28 µM
TGI (MCF7 breast): 8.59 µM
GI50 (MDA-MB-435): 3.15 µM
TGI (MDA-MB-435): 11.7 µM
GI50 (MDA-MB-231 breast): 3.9 µM
TGI (MDA-MB-231 breast): 15.7 µM

Nc1nc(-c2ccccc2)c(CC(=O)O)s1
TGI (T-47D breast): > 100 µM
TGI (MCF7 breast): > 100 µM
TGI (DU-145 prostate): > 100 µM
TGI (MDA-MB-435): > 100 µM
TGI (MDA-MB-231 breast): > 100 µM

CCOC(=O)c1cc(C(=O)c2ccc(OC)c(OC)c2)n2c1ccc1ccc3cccnc3c12
GI50 (T-47D breast): 2.37 µM
TGI (T-47D breast): > 100 µM
GI50 (MCF7 breast): 2.25 µM
TGI (MCF7 breast): > 100 µM
GI50 (DU-145 prostate): 3.45 µM
TGI (DU-145 prostate): > 100 µM
GI50 (MDA-MB-231 breast): 2.66 µM
TGI (MDA-MB-231 breast): > 100 µM

O=c1[nH]c2ccccc2cc1-c1nnc(Cc2ccccc2)o1
GI50 (T-47D breast): 3.04 µM
TGI (T-47D breast): 17.1 µM
GI50 (MCF7 breast): 2.41 µM
TGI (MCF7 breast): 12.9 µM
GI50 (DU-145 prostate): 5.18 µM
TGI (DU-145 prostate): 18.5 µM
GI50 (MDA-MB-435): 3.51 µM
TGI (MDA-MB-435): 17.5 µM
GI50 (MDA-MB-231 breast): 3.29 µM
TGI (MDA-MB-231 breast): 14.7 µM

O=C(O)c1ccccc1NCn1nc(-c2ccccc2O)oc1=S
GI50 (T-47D breast): 68.7 µM
TGI (T-47D breast): > 100 µM
GI50 (MCF7 breast): 46.7 µM
TGI (MCF7 breast): > 100 µM
GI50 (MDA-MB-435): > 100 µM
TGI (MDA-MB-435): > 100 µM
GI50 (MDA-MB-231 breast): 16.8 µM
TGI (MDA-MB-231 breast): 47.8 µM

Cn1cc(-c2ccc3ncc(-c4ccc(CC(=O)Nc5cc(C(C)(C)C)nn5C)cc4)cc3c2)cn1
GI50 (T-47D breast): 0.617 µM
TGI (T-47D breast): 5.91 µM
GI50 (MCF7 breast): 1.47 µM
TGI (MCF7 breast): > 20 µM
GI50 (DU-145 prostate): 1.1 µM
TGI (DU-145 prostate): > 20 µM
GI50 (MDA-MB-435): 1.25 µM
TGI (MDA-MB-435): > 20 µM
GI50 (MDA-MB-231 breast): 2.37 µM
TGI (MDA-MB-231 breast): > 20 µM

O=C(Nc1ccc(-n2cc(-c3ccncc3)c(-c3ccc(Cl)c(O)c3)n2)cc1)c1cc(C(F)(F)F)cc(C(F)(F)F)c1
GI50 (T-47D breast): 2.16 µM
TGI (T-47D breast): 9.35 µM
GI50 (MCF7 breast): 3.53 µM
TGI (MCF7 breast): 13.8 µM
GI50 (DU-145 prostate): 12.3 µM
TGI (DU-145 prostate): 54.7 µM
GI50 (MDA-MB-435): 4.11 µM
TGI (MDA-MB-435): 80.5 µM
GI50 (MDA-MB-231 breast): 3.29 µM
TGI (MDA-MB-231 breast): 21.6 µM

CCN(CC)CCNc1n[n+]([O-])c2cc([N+](=O)[O-])ccc2[n+]1[O-]
GI50 (T-47D breast): 1.34 µM and 0.381 µM and 0.779 µM
TGI (T-47D breast): 3.22 µM
GI50 (MCF7 breast): 0.274 µM and 0.11 µM and 0.136 µM
TGI (MCF7 breast): 1.91 µM and 2.17 µM and 1.99 µM
GI50 (DU-145 prostate): 1.2 µM and 0.63 µM and 0.578 µM
TGI (DU-145 prostate): 6.15 µM and 3.57 µM and 3.16 µM
TGI (MDA-MB-435): 2.71 µM and 2.37 µM and 2.29 µM
GI50 (MDA-MB-231 breast): 1.76 µM and 0.425 µM and 0.975 µM
TGI (MDA-MB-231 breast): 6.33 µM and 3.15 µM and 4.26 µM

COc1cccc(-c2cc(=O)c3cc(N4CCN(C)CC4)ccc3[nH]2)c1
GI50 (MCF7 breast): 3.72 µM
TGI (MCF7 breast): > 100 µM
GI50 (MDA-MB-435): 0.16 µM
TGI (MDA-MB-435): 0.554 µM and 0.364 µM
GI50 (MDA-MB-231 breast): 2.24 µM
TGI (MDA-MB-231 breast): 9.89 µM and 7.13 µM

C#Cc1cccc(NC(=O)/C=C\C(=O)O)c1
TGI (KM20L2 colon): > 100 µM
TGI (DLD-1 colon): > 100 µM

COc1ccc(N(CC(=O)O)N=O)cc1
TGI (T-47D breast): > 100 µM
TGI (MCF7 breast): > 100 µM
TGI (DU-145 prostate): > 100 µM
TGI (MDA-MB-435): > 100 µM
TGI (MDA-MB-231 breast): > 100 µM

Cc1ccccc1Nc1cc(O)c2c(=O)cc(-c3ccccc3)oc2c1
GI50 (T-47D breast): 2.96 µM
TGI (T-47D breast): > 100 µM
GI50 (MCF7 breast): 0.821 µM
TGI (MCF7 breast): > 100 µM
GI50 (DU-145 prostate): 3.78 µM
TGI (DU-145 prostate): > 100 µM
GI50 (MDA-MB-435): 0.315 µM
TGI (MDA-MB-435): 1.93 µM
GI50 (MDA-MB-231 breast): 3.58 µM
TGI (MDA-MB-231 breast): > 100 µM

CCOC(=O)[C@@H](C)C[C@H](Cc1ccccc1)NC(=O)c1csc([C@@H](C[C@H](C(C)C)N(C)C(=O)CNC(=O)[C@H]2CCCCN2C)OC(C)=O)n1
GI50 (T-47D breast): 0.59 µM
TGI (T-47D breast): > 14.3 µM
GI50 (MCF7 breast): 0.319 µM
TGI (MCF7 breast): > 14.3 µM
GI50 (DU-145 prostate): 0.58 µM
TGI (DU-145 prostate): > 9.17 µM
GI50 (MDA-MB-435): 0.228 µM
TGI (MDA-MB-435): 0.801 µM
GI50 (MDA-MB-231 breast): 1.44 µM
TGI (MDA-MB-231 breast): > 10.8 µM

CC(C)(C)C1=NO[C@H]2[C@@H](NC(=O)c3ccccc3)CC[C@@H]12
TGI (M19-MEL melanoma): > 100 µM
TGI (KM20L2 colon): > 100 µM
TGI (DMS 114 small cell lung): > 100 µM
TGI (DLD-1 colon): > 100 µM

O=C1Nc2ccc(-c3cccnc3)cc2/C1=C/c1cc(Br)c(O)c(Br)c1
GI50 (T-47D breast): 10.6 µM
TGI (T-47D breast): > 25 µM
GI50 (MCF7 breast): 11.4 µM
TGI (MCF7 breast): > 25 µM
GI50 (DU-145 prostate): 6.28 µM
TGI (DU-145 prostate): > 25 µM
GI50 (MDA-MB-435): 4.6 µM
TGI (MDA-MB-435): > 21.7 µM
GI50 (MDA-MB-231 breast): 7.41 µM
TGI (MDA-MB-231 breast): > 25 µM

N#Cc1c(-c2ccccc2)c(-c2ccccc2)cc2c(=O)c3ccc(Cl)cc3[nH]c12
TGI (M19-MEL melanoma): > 100 µM
TGI (KM20L2 colon): > 100 µM
TGI (DMS 273 small cell lung): > 100 µM
TGI (DLD-1 colon): > 100 µM

COc1ccc([C@@]23Oc4cc(OC)cc(OC)c4[C@]2(O)[C@H](O)[C@H](C(=O)N(C)C)[C@H]3c2ccccc2)cc1
TGI (T-47D breast): 0.044 µM and 0.0052 µM
GI50 (DU-145 prostate): 0.0135 µM
TGI (DU-145 prostate): 0.0635 µM and 0.0375 µM and 0.219 µM
TGI (MDA-MB-435): 0.0434 µM and 0.0188 µM and 0.15 µM
GI50 (MDA-MB-231 breast): 0.0231 µM
TGI (MDA-MB-231 breast): 0.049 µM and 0.00949 µM and 0.0756 µM
